In patent US11802120B2, “Fused cyclic urea derivatives as CRHR2 antagonist” (RaQualia Pharma Inc., priority 2018, dated 2023):

Target: T1, human CRHR2-alpha (Homo sapiens, UniProt Q13324)
T1 sequence (Q13324 1-411): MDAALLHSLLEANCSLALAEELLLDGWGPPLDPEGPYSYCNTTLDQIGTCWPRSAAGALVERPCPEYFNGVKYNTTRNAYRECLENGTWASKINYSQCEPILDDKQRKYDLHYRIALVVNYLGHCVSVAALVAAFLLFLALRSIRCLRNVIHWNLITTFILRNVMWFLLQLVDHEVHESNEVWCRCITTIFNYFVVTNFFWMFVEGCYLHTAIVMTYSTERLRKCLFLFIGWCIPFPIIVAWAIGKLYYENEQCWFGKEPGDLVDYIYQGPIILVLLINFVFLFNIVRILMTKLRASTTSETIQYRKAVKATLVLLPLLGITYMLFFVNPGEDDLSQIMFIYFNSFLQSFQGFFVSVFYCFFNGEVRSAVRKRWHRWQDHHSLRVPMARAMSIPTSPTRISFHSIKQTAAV
Experiment: cAMP functional assay for human CRHR2 (LANCE Ultra cAMP, TR-FRET)
Assay type: cell-based
Details: CHO-K1 cells expressing human CRHR2-alpha, agonist human urocortin2 at EC80, cAMP; read-out: IC50 against CRHR2
Outline: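 First, starved and frozen CHO-K1 cells expressing the receptor are thawed into IBMX-containing HBSS buffer (pH 7.4). Next, compounds are added for 30 min at 25° C. Then agonist at EC80 (urocortin2 or CRF, per receptor) is added for another 30 min, followed by cAMP detection reagents.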

In the case of O=C(N[C@H]1CC[C@H](Cn2c(=O)n(-c3cnc4c(ccn4CCO)c3)c3ccccc32)CC1)c1cc(Cl)cnc1C(F)F [Example 666, 5-chloro-2-(difluoromethyl)-N-((1r,4r)-4-((3-(1-(2-hydroxyethyl)-1H-pyrrolo[2,3-b]pyridin-5-yl)-2-oxo-2,3-dihydro-1H-benzo[d]imidazol-1-yl)methyl)cyclohexyl)nicotinamide], the IC50 is reported as less than 300 nM.

Cc1ncc(Cl)cc1C(=O)N[C@H]1CC[C@H](Cn2c(=O)n(-c3ccc(-c4c[nH]cn4)cc3)c3ccccc32)CC1 [Example 667, N-((1r,4r)-4-((3-(4-(1H-imidazol-4-yl)phenyl)-2-oxo-2,3-dihydro-1H-benzo[d]imidazol-1-yl)methyl)cyclohexyl)-5-chloro-2-methylnicotinamide] showed an IC50 of less than 300 nM.

CNc1ccc(-n2c(=O)n(C[C@H]3CC[C@H](NC(=O)c4cc(Cl)cnc4C)CC3)c3c(F)cccc32)cn1 [Example 668, 5-chloro-N-((1r,4r)-4-((7-fluoro-3-(6-(methylamino)pyridin-3-yl)-2-oxo-2,3-dihydro-1H-benzo[d]imidazol-1-yl)methyl)cyclo-hexyl)-2-methylnicotinamide] gave an IC50 of less than 300 nM.

In the case of CC(C)(O)C(=O)Nc1ccc(-n2c(=O)n(C[C@H]3CC[C@H](NC(=O)c4cc(Cl)cnc4C(F)F)CC3)c3ccccc32)cn1 [Example 669, 5-chloro-2-(difluoromethyl)-N-((1r,4r)-4-((3-(6-(2-hydroxy-2-methylpropana-mido)pyridin-3-yl)-2-oxo-2,3-dihydro-1H-benzo[d]imidazol-1-yl)methyl)cyclo-hexyl)nicotinamide], the IC50 is reported as less than 300 nM.

C[C@H](O)C(=O)Nc1ccc(-n2c(=O)n(C[C@H]3CC[C@H](NC(=O)c4cc(Cl)cnc4C(F)F)CC3)c3ccccc32)cn1 [Example 671, 5-chloro-2-(difluoromethyl)-N-((1S,4r)-4-((3-(6-((S)-2-hydroxypropanamido)pyridin-3-yl)-2-oxo-2,3-dihydro-1H-benzo[d]imidazol-1-yl)methyl)cyclohexyl)nicotinamide] gave an IC50 of less than 300 nM.

Molecule CNc1ccc(-n2c(=O)n(C[C@H]3CC[C@H](NC(=O)c4cc(Cl)cnc4C(F)F)CC3)c3c(F)cccc32)cn1 [Example 672, 5-chloro-2-(difluoromethyl)-N-((1r,4r)-4-((7-fluoro-3-(6-(methylamino)pyridin-3-yl)-2-oxo-2,3-dihydro-1H-benzo [d]imidazol-1-yl)methyl)cyclo-hexyl)nicotinamide] has an IC50 of less than 300 nM.

Molecule Cc1cc2cc(-n3c(=O)n(C[C@H]4CC[C@H](NC(=O)c5cc(Cl)cnc5C(F)F)CC4)c4ccccc43)cnc2[nH]1 [Example 673, 5-chloro-2-(difluoromethyl)-N-((1r,4r)-4-((3-(2-methyl-1H-pyrrolo[2,3-b]pyridin-5-yl)-2-oxo-2,3-dihydro-1H-benzo[d]imidazol-1-yl)methyl)cyclohexyl)nicotinamide] has an IC50 of less than 300 nM.

Molecule Cc1cc2cc(-n3c(=O)n(C[C@H]4CC[C@H](NC(=O)c5cc(Cl)cnc5C(F)F)CC4)c4ccccc43)cnc2n1C [Example 674, 5-chloro-2-(difluoromethyl)-N-((1r,4r)-4-((3-(1,2-dimethyl-1H-pyrrolo[2,3-b]pyridin-5-yl)-2-oxo-2,3-dihydro-1H-benzo[d]imidazol-1-yl)methyl)cyclohexyl)nicotinamide] has an IC50 of less than 300 nM.

Molecule COc1ccc(Cl)c(-n2c(=O)n(C[C@H]3CC[C@H](NC(=O)c4cc(Cl)cnc4C(F)F)CC3)c3ncccc32)c1 [Example 675, 5-chloro-N-((1r,4r)-4-((1-(2-chloro-5-methoxyphenyl)-2-oxo-1H-imidazo[4,5-b]pyridin-3(2H)-yl)methyl)cyclohexyl)-2-(difluoro-methyl)nicotinamide] has an IC50 of less than 300 nM.

O=C(N[C@H]1CC[C@H](Cn2c(=O)n(-c3cc(F)ccc3Cl)c3cccnc32)CC1)c1cc(Cl)cnc1C(F)F [Example 676, 5-chloro-N-((1r,4r)-4-((1-(2-chloro-5-fluorophenyl)-2-oxo-1H-imidazo[4,5-b]pyridin-3(2H)-yl)methyl)cyclohexyl)-2-(difluoro-methyl)nicotinamide] gave an IC50 of less than 300 nM.

Cc1ncc(Cl)cc1C(=O)N[C@H]1CC[C@H](Cn2c(=O)n(-c3cccc(-c4cnn(C)c4)c3)c3ccccc32)CC1 [Example 678, 5-chloro-2-methyl-N-((1r,4r)-4-((3-(3-(1-methyl-1H-pyrazol-4-yl)phenyl)-2-oxo-2,3-dihydro-1H-benzo[d]imidazol-1-yl)methyl)cyclohexyl)nicotinamide] showed an IC50 of less than 300 nM.

Cc1ncc(Cl)cc1C(=O)N[C@H]1CC[C@H](Cn2c(=O)n(-c3cncc(-c4cnn(C)c4)c3)c3ccccc32)CC1 [Example 679, 5-chloro-2-methyl-N-((1r,4r)-4-((3-(5-(1-methyl-1H-pyrazol-4-yl)pyridin-3-yl)-2-oxo-2,3-dihydro-1H-benzo[d]imidazol-1-yl)methyl)cyclohexyl) nicotinamide] was tested, and the IC50 was less than 300 nM.

In the case of Cc1ncc(Cl)cc1C(=O)N[C@H]1CC[C@H](Cn2c(=O)n(-c3ccnc(-c4cnn(C)c4)c3)c3ccccc32)CC1 [Example 680, 5-chloro-2-methyl-N-((1r,4r)-4-((3-(2-(1-methyl-1H-pyrazol-4-yl)pyridin-4-yl)-2-oxo-2,3-dihydro-1H-benzo[d]imidazol-1-yl)methyl)cyclohexyl) nicotinamide], the IC50 is reported as less than 300 nM.

In the case of Cn1cc(-c2cccc(-n3c(=O)n(C[C@H]4CC[C@H](NC(=O)c5cc(Cl)cnc5C(F)F)CC4)c4ccccc43)c2)cn1 [Example 681, 5-chloro-2-(difluoromethyl)-N-((1r,4r)-4-((3-(3-(1-methyl-1H-pyrazol-4-yl)phenyl)-2-oxo-2,3-dihydro-1H-benzo [d]imidazol-1-yl)methyl)cyclo-hexyl)nicotinamide], the IC50 is reported as less than 300 nM.

Cn1cc(-c2cncc(-n3c(=O)n(C[C@H]4CC[C@H](NC(=O)c5cc(Cl)cnc5C(F)F)CC4)c4ccccc43)c2)cn1 [Example 682, 5-chloro-2-(difluoromethyl)-N-((1r,4r)-4-((3-(5-(1-methyl-1H-pyrazol-4-yl)pyridin-3-yl)-2-oxo-2,3-dihydro-1H-benzo[d]imidazol-1-yl)methyl)cyclohexyl)nicotinamide] gave an IC50 of less than 300 nM.

In the case of COc1cncc(-n2c(=O)n(C[C@H]3CC[C@H](NC(=O)c4cc(Cl)cnc4C(F)F)CC3)c3ccccc32)c1 [Example 683, 5-chloro-2-(difluoromethyl)-N-((1r,4r)-4-((3-(5-methoxy-pyridin-3-yl)-2-oxo-2,3-dihydro-1H-benzo[d]imidazol-1-yl)methyl)cyclohexyl) nicotinamide], the IC50 is reported as less than 300 nM.

Work on O=C(N[C@H]1CC[C@H](Cn2c(=O)n(-c3ccc(-n4nccn4)cc3)c3ccccc32)CC1)c1cc(Cl)cnc1C(F)F [Example 684, N-((1r,4r)-4-((3-(4-(2H-1,2,3-triazol-2-yl)phenyl)-2-oxo-2,3-dihydro-1H-benzo[d]imidazol-1-yl)methyl)cyclo-hexyl)-5-chloro-2-(difluoro-methyl)nicotinamide] yielded an IC50 of less than 300 nM.

For O=C(N[C@H]1CC[C@H](Cn2c(=O)n(-c3ccc(-n4nccn4)nc3)c3ccccc32)CC1)c1cc(Cl)cnc1C(F)F [Example 685, N-((1r,4r)-4-((3-(6-(2H-1,2,3-triazol-2-yl)pyridin-3-yl)-2-oxo-2,3-dihydro-1H-benzo[d]imidazol-1-yl)methyl)cyclohexyl)-5-chloro-2-(difluoromethyl) nicotinamide], the IC50 was less than 300 nM.

O=C(N[C@H]1CC[C@H](Cn2c(=O)n(-c3ccnc(N4CCOCC4)c3)c3ccccc32)CC1)c1cc(Cl)cnc1C(F)F [Example 686, 5-chloro-2-(difluoromethyl)-N-((1r,4r)-4-((3-(2-morpho-linopyridin-4-yl)-2-oxo-2,3-dihydro-1H-benzo[d]imidazol-1-yl)methyl)cyclohexyl) nicotinamide] gave an IC50 of less than 300 nM.

O=C(N[C@H]1CC[C@H](Cn2c(=O)n(-c3ccnc(-c4cnco4)c3)c3ccccc32)CC1)c1cc(Cl)cnc1C(F)F [Example 687, 5-chloro-2-(difluoromethyl)-N-((1r,4r)-4-((3-(2-(oxazol-5-yl)pyridin-4-yl)-2-oxo-2,3-dihydro-1H-benzo[d]imidazol-1-yl)methyl)cyclohexyl) nicotinamide] showed an IC50 of less than 300 nM.

In the case of O=C(N[C@H]1CC[C@H](Cn2c(=O)n(-c3cncc(-c4ncco4)c3)c3ccccc32)CC1)c1cc(Cl)cnc1C(F)F [Example 688, 5-chloro-2-(difluoromethyl)-N-((1r,4r)-4-((3-(5-(oxazol-2-yl)pyridin-3-yl)-2-oxo-2,3-dihydro-1H-benzo[d]imidazol-1-yl)methyl)cyclohexyl) nicotinamide], the IC50 is reported as less than 300 nM.

In the case of Cc1ncc(Cl)cc1C(=O)N[C@H]1CC[C@H](Cn2c(=O)n(-c3ccnc(N4CCN(C)C4=O)c3)c3ccccc32)CC1 [Example 690, 5-chloro-2-methyl-N-((1r,4r)-4-((3-(2-(3-methyl-2-oxoimi-dazolidin-1-yl)pyridin-4-yl)-2-oxo-2,3-dihydro-1H-benzo [d]imidazol-1-yl)methyl)cyclo-hexyl)nicotinamide], the IC50 is reported as less than 300 nM.

Work on O=C(N[C@H]1CC[C@H](Cn2c(=O)n(-c3ccnc(N4CCNC4=O)c3)c3ccccc32)CC1)c1cc(Cl)cnc1C(F)F [Example 691, 5-chloro-2-(difluoromethyl)-N-((1r,4r)-4-((2-oxo-3-(2-(2-oxoimidazolidin-1-yl)pyridin-4-yl)-2,3-dihydro-1H-benzo [d]imidazol-1-yl)methyl)cyclo-hexyl)nicotinamide] yielded an IC50 of less than 300 nM.
